Literature values in US20190021382A1, “LONG-LASTING SWEETENER FORMULATIONS” (WM. WRIGLEY JR. COMPANY, priority 2016, published 2019).

Conditions: relative to sugar

## C=C1C[C@@]23CC[C@H]4[C@@](C)(CCC[C@@]4(C)C(=O)O[C@@H]4O[C@H](CO)[C@@H](O)[C@H](O)[C@H]4O)[C@@H]2CC[C@]1(O[C@@H]1O[C@H](CO)[C@@H](O)[C@H](O[C@@H]2O[C@H](CO)[C@@H](O)[C@H](O)[C@H]2O)[C@H]1O[C@@H]1O[C@H](CO)[C@@H](O)[C@H](O)[C@H]1O)C3 [Rebaudioside A, rebaudioside A]
  times sweeter than sugar: 200 times
